Assay results reported in PMC3069973, “A Fungal Metabolite Asperparaline A Strongly and Selectively Blocks Insect Nicotinic Acetylcholine Receptors: The First Report on the Mode of Action” (PLoS ONE, 2011).

What was measured:
[1] = system: T1, nicotinic acetylcholine receptor (native nAChRs of silkworm larval brain neurons, subunits not identified); test: whole-cell patch-clamp, block of peak ACh-induced current (slowly desensitizing current IC50 […]); assay type: cell-based, Bombyx mori
T1 construct: native receptors in cultured larval brain neurons

[2] = molecular target: T2, α3β4 nicotinic acetylcholine receptor (Gallus gallus, UniProt P09481+P26153); test: two-electrode voltage-clamp, weak block:[…] reduction of the ACh response at […]; assay type: cell-based
T2 construct: gene CHRNA3; chicken α3β4 nAChR expressed in Xenopus laevis oocytes; with nAChR β4 subunit
T2 sequence (P09481 23-496): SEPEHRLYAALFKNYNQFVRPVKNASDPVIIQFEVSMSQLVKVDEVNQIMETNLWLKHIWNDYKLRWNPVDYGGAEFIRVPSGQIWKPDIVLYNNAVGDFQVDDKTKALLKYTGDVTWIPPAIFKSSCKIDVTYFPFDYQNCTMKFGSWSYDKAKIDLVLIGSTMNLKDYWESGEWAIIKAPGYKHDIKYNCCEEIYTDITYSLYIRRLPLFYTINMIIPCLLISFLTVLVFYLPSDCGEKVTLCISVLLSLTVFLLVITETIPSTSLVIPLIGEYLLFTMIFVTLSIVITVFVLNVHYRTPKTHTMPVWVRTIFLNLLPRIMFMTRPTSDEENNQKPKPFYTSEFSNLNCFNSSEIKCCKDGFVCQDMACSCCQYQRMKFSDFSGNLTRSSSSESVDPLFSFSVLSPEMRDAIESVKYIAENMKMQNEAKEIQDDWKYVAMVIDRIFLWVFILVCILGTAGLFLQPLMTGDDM
T2 sequence (P26153 4-470): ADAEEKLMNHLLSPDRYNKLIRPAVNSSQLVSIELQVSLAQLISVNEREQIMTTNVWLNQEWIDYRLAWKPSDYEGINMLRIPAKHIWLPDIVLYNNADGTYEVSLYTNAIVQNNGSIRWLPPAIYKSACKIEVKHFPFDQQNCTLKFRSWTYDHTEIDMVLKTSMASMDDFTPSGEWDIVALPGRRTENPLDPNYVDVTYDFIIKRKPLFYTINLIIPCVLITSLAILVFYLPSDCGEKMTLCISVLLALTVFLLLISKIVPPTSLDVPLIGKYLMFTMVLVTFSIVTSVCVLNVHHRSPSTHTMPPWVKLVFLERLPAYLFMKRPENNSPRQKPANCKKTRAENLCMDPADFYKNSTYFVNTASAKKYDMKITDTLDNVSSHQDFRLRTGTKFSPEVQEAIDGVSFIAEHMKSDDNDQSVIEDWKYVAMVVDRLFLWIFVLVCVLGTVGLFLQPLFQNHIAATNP

[3] = system: T1, nicotinic acetylcholine receptor (native nAChRs of silkworm larval brain neurons, subunits not identified); test: whole-cell patch-clamp, agonist concentration-response; assay type: cell-based, Bombyx mori
[4] = molecular target: T3, L-glutamate-gated chloride channel (native, silkworm larval brain neurons, subunits not identified) (Bombyx mori, UniProt V9P9S1); test: whole-cell patch-clamp, agonist-evoked current at […] (stated to be close to EC50); assay type: cell-based
T3 construct: native receptors in cultured larval brain neurons
T3 sequence (V9P9S1 25-446): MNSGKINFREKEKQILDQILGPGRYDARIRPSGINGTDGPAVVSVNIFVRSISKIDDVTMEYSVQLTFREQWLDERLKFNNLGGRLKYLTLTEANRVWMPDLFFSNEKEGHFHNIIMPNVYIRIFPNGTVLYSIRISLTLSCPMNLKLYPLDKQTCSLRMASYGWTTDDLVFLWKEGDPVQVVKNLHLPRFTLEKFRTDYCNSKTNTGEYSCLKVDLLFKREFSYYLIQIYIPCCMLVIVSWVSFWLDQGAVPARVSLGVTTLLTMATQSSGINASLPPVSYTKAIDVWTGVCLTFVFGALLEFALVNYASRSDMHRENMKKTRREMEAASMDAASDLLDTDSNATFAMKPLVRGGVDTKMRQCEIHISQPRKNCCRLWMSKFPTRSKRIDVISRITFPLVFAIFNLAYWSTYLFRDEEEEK

C[C@H]1CCN2C[C@]34C[C@]5(CC(=O)N(C)C5=O)C(C)(C)[C@@H]3C[C@]12C(=O)N4C [asperparaline A]
IC50 [1]: 0.0202 µM | inhibition at 10 µM [2]: 33.4%

N[C@@H](CCC(=O)O)C(=O)O [L-glutamate]
EC50 [4]: ~ 30 µM
